Experimental data taken from ChEMBL document CHEMBL1132802, “Synthesis, chiral chromatographic separation, and biological activities of the enantiomers of 10,10-dimethylhuperzine A” (Bioorg Med Chem Lett, 2000).

What was measured:
Acetylcholinesterase = molecular target: T1, Acetylcholinesterase (Bos taurus, UniProt P23795); assay: Binding affinity towards Acetylcholinesterase from fetal bovine serum
T1 sequence (P23795 whole entry): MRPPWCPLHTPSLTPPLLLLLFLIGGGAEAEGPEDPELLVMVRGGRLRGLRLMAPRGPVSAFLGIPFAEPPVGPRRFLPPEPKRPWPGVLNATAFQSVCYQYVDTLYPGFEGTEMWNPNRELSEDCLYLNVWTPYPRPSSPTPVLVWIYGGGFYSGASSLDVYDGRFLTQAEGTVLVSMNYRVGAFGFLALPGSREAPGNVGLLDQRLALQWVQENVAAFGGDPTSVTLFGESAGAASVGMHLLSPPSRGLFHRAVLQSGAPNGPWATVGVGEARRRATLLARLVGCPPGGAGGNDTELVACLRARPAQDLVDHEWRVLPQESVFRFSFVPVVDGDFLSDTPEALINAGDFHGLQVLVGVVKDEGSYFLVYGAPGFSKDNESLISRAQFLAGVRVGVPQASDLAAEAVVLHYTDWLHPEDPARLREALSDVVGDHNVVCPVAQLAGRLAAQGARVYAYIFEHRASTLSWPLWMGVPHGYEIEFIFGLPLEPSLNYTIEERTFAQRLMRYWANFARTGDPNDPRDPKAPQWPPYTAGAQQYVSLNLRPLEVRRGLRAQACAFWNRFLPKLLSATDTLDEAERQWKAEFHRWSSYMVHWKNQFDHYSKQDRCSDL

Rattus norvegicus = organism: Rattus norvegicus; assay: Effect of pretreatment on the survival of the rat embryonic forebrain neurons when exposed to glutamate; type: functional
[1] = Half life period was determined; type: ADME; details: rat

| SMILES | Ki (Acetylcholinesterase) [nM] | Control (Rattus norvegicus) [%] | further results |
| --- | --- | --- | --- |
| C/C=C1\C2C=C(C)C[C@]1(N)c1ccc(O)nc1C2(C)C (stereo in doubt; form 1) | 30.9 | – | – |
| C/C=C1\C2C=C(C)C[C@]1(N)c1ccc(O)nc1C2(C)C.NC(CCC(=O)O)C(=O)O (stereo in doubt; form 2) | – | 71.7 | – |
| C/C=C1\C2C=C(C)C[C@]1(N)c1ccc(O)nc1C2(C)C.NC(CCC(=O)O)C(=O)O (stereo in doubt; form 3) | – | 71.3 | – |
| C/C=C1\C2C=C(C)C[C@]1(N)c1ccc(O)nc1C2(C)C (stereo in doubt; form 4) | 7.7 | – | – |
| N[C@@H](CCC(=O)O)C(=O)O [GLUTAMIC ACID] | – | 43.7 | – |
| C/C=C1\[C@H]2C=C(C)C[C@]1(N)c1ccc(=O)[nH]c1C2 [HUPERZINE A] | – | – | half-life [1]: 35 min |
